Assay results: patent US9738634B2, “Heterocyclic amide compound and herbicide” (SYNGENTA PARTICIPATIONS AG, priority 2013, dated 2017)

Legend:
Format in all cases: in vivo
Conditions in all cases: treatment dosage 320 g/ha
black-grass [1] = assay: Test Example 4: weedkilling efficacy by foliar treatment; H: black-grass
Summary of the method: (§1)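 Seeds are spot-sown into sterilized diluvial soil and covered with about 1.5 cm of soil. After 14 days' greenhouse growth at 25 to 30° C, plants are sprayed on stems and leaves with diluted emulsion at the stated g/ha rate, then scored at 3 weeks.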

corn [2] = assay: Test Example 4: foliar treatment, effect on crop; c: corn
Summary of the method: as §1

barnyard grass [3] = assay: Test Example 4: weedkilling efficacy by foliar treatment; F: barnyard grass
Description: (§2) Testing of Weedkilling Efficacy by Foliar Treatment
(§3) Sterilized diluvial soil was introduced into 21 cm long, 13 cm wide, 7 cm deep plastic boxes, and seeds of crabgrass, green foxtail, barnyard grass, wild oat, black-grass, Italian ryegrass, common wind-grass, Indian mallow, redroot pigweed, fig-leafed goosefoot, chickweed, catchweed, birds-eye speedwell, corn, soybean, rice, wheat, beet and rapeseed were each spot-sown, and covered with about 1.5 cm of soil, then the plants were grown in a greenhouse at 25 to 30° C.
(§4) After they had grown for 14 days, emulsions of compounds of the present invention prepared according to compounding example 2 were diluted with water to give the specified dosages, and applied uniformly onto the stem and leaf parts with a small sprayer. 3 weeks after the pesticide treatment the effect on each type of plant was investigated on the basis of the assessment criteria of test example 1.
(§5) A: barnyard grass, B: bulrush, C: oval-leafed pondweed, D: crabgrass, E: green foxtail, F: barnyard grass, G: wild oat, H: black-grass, I: Italian ryegrass, J: common wind-grass, K: Indian mallow, L: redroot pigweed, M: fig-leafed goosefoot, N: chickweed, O: catchweed, p: birds-eye speedwell, a: transplanted rice, b: directly sown rice, c: corn, d: soybean, e: wheat, f: beet, g: rapeseed
(§6) Further, pesticide dosage (g/ha) indicates the concentration regulated such that treatment was with only the stated number of grams (g), when calculated per hectare (ha).

bulrush [4] = assay: Test Example 2: weedkilling efficacy, growth period weed treatment in the submerged state; B: bulrush
Summary of the method: (§7)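 Weeds treated at the 1-2 leaf stage by application of diluted emulsion onto floodwater (4 cm depth, alluvial soil) at specified g/ha. Grown in greenhouse at 25 to 30° C; herbicidal effect rated three weeks after treatment.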

soybean [5] = assay: Test Example 4: foliar treatment, effect on crop; d: soybean
Summary of the method: as §1

beet [6] = assay: Test Example 4: foliar treatment, effect on crop; f: beet
Summary of the method: as §1

bulrush [7] = assay: Test Example 1: weedkilling efficacy, preemergent weed treatment in the submerged state; B: bulrush
Summary of the method: (§8)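 Pots of alluvial soil were flooded to a 4 cm depth. Mixed weed seeds were sown and 2.5 leaf-stage rice seedlings transplanted. On sowing day, water-diluted emulsion was applied to the water surface (dose in g/ha). After 3 weeks at 25–30 °C, effects were rated.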

chickweed [8] = assay: Test Example 4: weedkilling efficacy by foliar treatment; N: chickweed
Summary of the method: as §1

redroot pigweed [9] = assay: Test Example 3: weedkilling efficacy through soil treatment; L: redroot pigweed
Summary of the method: (§9)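 Crop and weed responses were judged three weeks after a uniform surface spray of the water-diluted emulsion at the given g/ha rate. Seeds sat beneath about 1.5 cm of sterilized diluvial soil, and boxes stood in a greenhouse at 25 to 30° C.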

redroot pigweed [10] = assay: Test Example 4: weedkilling efficacy by foliar treatment; L: redroot pigweed
Summary of the method: as §1

directly sown rice [11] = assay: Test Example 4: foliar treatment, effect on crop; b: directly sown rice
Summary of the method: as §1

rapeseed [12] = assay: Test Example 4: foliar treatment, effect on crop; g: rapeseed
Description: as §2, §3, §4, §5, §6

crabgrass [13] = assay: Test Example 4: weedkilling efficacy by foliar treatment; D: crabgrass
Summary of the method: as §1

common wind-grass [14] = assay: Test Example 4: weedkilling efficacy by foliar treatment; J: common wind-grass
Description: as §2, §3, §4, §5, §6

Indian mallow [15] = assay: Test Example 4: weedkilling efficacy by foliar treatment; K: Indian mallow
Summary of the method: as §1

barnyard grass [16] = assay: Test Example 3: weedkilling efficacy through soil treatment; F: barnyard grass
Summary of the method: as §9

barnyard grass [17] = assay: Test Example 2: weedkilling efficacy, growth period weed treatment in the submerged state; A: barnyard grass
Summary of the method: as §7

Italian ryegrass [18] = assay: Test Example 4: weedkilling efficacy by foliar treatment; I: Italian ryegrass
Summary of the method: as §1

transplanted rice = assay: Test Example 1: preemergent weed treatment in the submerged state, effect on crop; a: transplanted rice
Summary of the method: as §8

soybean [19] = assay: Test Example 3: soil treatment, effect on crop; d: soybean
Summary of the method: as §9

fig-leafed goosefoot [20] = assay: Test Example 3: weedkilling efficacy through soil treatment; M: fig-leafed goosefoot
Summary of the method: as §9

directly sown rice [21] = assay: Test Example 3: soil treatment, effect on crop; b: directly sown rice
Summary of the method: as §9

oval-leafed pondweed [22] = assay: Test Example 2: weedkilling efficacy, growth period weed treatment in the submerged state; C: oval-leafed pondweed
Summary of the method: as §7

green foxtail [23] = assay: Test Example 3: weedkilling efficacy through soil treatment; E: green foxtail
Summary of the method: as §9

fig-leafed goosefoot [24] = assay: Test Example 4: weedkilling efficacy by foliar treatment; M: fig-leafed goosefoot
Summary of the method: as §1

catchweed = assay: Test Example 4: weedkilling efficacy by foliar treatment; O: catchweed
Summary of the method: as §1

rapeseed [25] = assay: Test Example 3: soil treatment, effect on crop; g: rapeseed
Summary of the method: as §9

wild oat [26] = assay: Test Example 4: weedkilling efficacy by foliar treatment; G: wild oat
Summary of the method: as §1

wild oat [27] = assay: Test Example 3: weedkilling efficacy through soil treatment; G: wild oat
Summary of the method: as §9

green foxtail [28] = assay: Test Example 4: weedkilling efficacy by foliar treatment; E: green foxtail
Summary of the method: as §1

common wind-grass [29] = assay: Test Example 3: weedkilling efficacy through soil treatment; J: common wind-grass
Summary of the method: as §9

Indian mallow [30] = assay: Test Example 3: weedkilling efficacy through soil treatment; K: Indian mallow
Summary of the method: as §9

corn [31] = assay: Test Example 3: soil treatment, effect on crop; c: corn
Summary of the method: as §9

barnyard grass [32] = assay: Test Example 1: weedkilling efficacy, preemergent weed treatment in the submerged state; A: barnyard grass
Summary of the method: as §8

chickweed [33] = assay: Test Example 3: weedkilling efficacy through soil treatment; N: chickweed
Summary of the method: as §9

birds-eye speedwell = assay: Test Example 3: weedkilling efficacy through soil treatment; p: birds-eye speedwell
Summary of the method: as §9

oval-leafed pondweed [34] = assay: Test Example 1: weedkilling efficacy, preemergent weed treatment in the submerged state; C: oval-leafed pondweed
Summary of the method: as §8

black-grass [35] = assay: Test Example 3: weedkilling efficacy through soil treatment; H: black-grass
Summary of the method: as §9

crabgrass [36] = assay: Test Example 3: weedkilling efficacy through soil treatment; D: crabgrass
Summary of the method: as §9

Italian ryegrass [37] = assay: Test Example 3: weedkilling efficacy through soil treatment; I: Italian ryegrass
Summary of the method: as §9

wheat [38] = assay: Test Example 4: foliar treatment, effect on crop; e: wheat
Summary of the method: as §1

wheat [39] = assay: Test Example 3: soil treatment, effect on crop; e: wheat
Summary of the method: as §9

beet [40] = assay: Test Example 3: soil treatment, effect on crop; f: beet
Summary of the method: as §9

## CC1=C(c2cccnc2F)C(=O)N(C(C)(C)C(=O)Nc2cc(C)cc(Cl)n2)CO1 [B-2-15]
black-grass [1]
  H (black-grass) weedkilling efficacy grade: 4 (weed kill ratio 70% or more, less than 90%)
Corn [2]
  c (corn) effect on crop grade: 4 (weed kill ratio 70% or more, less than 90%)
Barnyard grass [3]
  F (barnyard grass) weedkilling efficacy grade: 4 (weed kill ratio 70% or more, less than 90%)
Bulrush [4]
  B (bulrush) weedkilling efficacy grade: 5 (weed kill ratio 90% or more, (practically complete withering))
Soybean [5]
  d (soybean) effect on crop grade: 1 (weed kill ratio 5% or more, less than 20%)
Beet [6]
  f (beet) effect on crop grade: 3 (weed kill ratio 40% or more, less than 70%)
Bulrush [7]
  B (bulrush) weedkilling efficacy grade: 5 (weed kill ratio 90% or more, (practically complete withering))
Chickweed [8]
  N (chickweed) weedkilling efficacy grade: 4 (weed kill ratio 70% or more, less than 90%)
Redroot pigweed [9]
  L (redroot pigweed) weedkilling efficacy grade: 0 (weed kill ratio 5% or less (practically no effect))
Redroot pigweed [10]
  L (redroot pigweed) weedkilling efficacy grade: 2 (weed kill ratio 20% or more, less than 40%)
Directly sown rice [11]
  b (directly sown rice) effect on crop grade: 5 (weed kill ratio 90% or more, (practically complete withering))
Rapeseed [12]
  g (rapeseed) effect on crop grade: 4 (weed kill ratio 70% or more, less than 90%)
Crabgrass [13]
  D (crabgrass) weedkilling efficacy grade: 4 (weed kill ratio 70% or more, less than 90%)
Common wind-grass [14]
  J (common wind-grass) weedkilling efficacy grade: 5 (weed kill ratio 90% or more, (practically complete withering))
Indian mallow [15]
  K (Indian mallow) weedkilling efficacy grade: 1 (weed kill ratio 5% or more, less than 20%)
Barnyard grass [16]
  F (barnyard grass) weedkilling efficacy grade: 5 (weed kill ratio 90% or more, (practically complete withering))
Barnyard grass [17]
  A (barnyard grass) weedkilling efficacy grade: 4 (weed kill ratio 70% or more, less than 90%)
Italian ryegrass [18]
  I (Italian ryegrass) weedkilling efficacy grade: 5 (weed kill ratio 90% or more, (practically complete withering))
Transplanted rice
  a (transplanted rice) effect on crop grade: 3 (weed kill ratio 40% or more, less than 70%)
Soybean [19]
  d (soybean) effect on crop grade: 0 (weed kill ratio 5% or less (practically no effect))
fig-leafed goosefoot [20]
  M (fig-leafed goosefoot) weedkilling efficacy grade: 3 (weed kill ratio 40% or more, less than 70%)
Directly sown rice [21]
  b (directly sown rice) effect on crop grade: 5 (weed kill ratio 90% or more, (practically complete withering))
oval-leafed pondweed [22]
  C (oval-leafed pondweed) weedkilling efficacy grade: 5 (weed kill ratio 90% or more, (practically complete withering))
Green foxtail [23]
  E (green foxtail) weedkilling efficacy grade: 5 (weed kill ratio 90% or more, (practically complete withering))
fig-leafed goosefoot [24]
  M (fig-leafed goosefoot) weedkilling efficacy grade: 4 (weed kill ratio 70% or more, less than 90%)
catchweed
  O (catchweed) weedkilling efficacy grade: 3 (weed kill ratio 40% or more, less than 70%)
Rapeseed [25]
  g (rapeseed) effect on crop grade: 2 (weed kill ratio 20% or more, less than 40%)
Wild oat [26]
  G (wild oat) weedkilling efficacy grade: 3 (weed kill ratio 40% or more, less than 70%)
Wild oat [27]
  G (wild oat) weedkilling efficacy grade: 3 (weed kill ratio 40% or more, less than 70%)
Green foxtail [28]
  E (green foxtail) weedkilling efficacy grade: 5 (weed kill ratio 90% or more, (practically complete withering))
Common wind-grass [29]
  J (common wind-grass) weedkilling efficacy grade: 5 (weed kill ratio 90% or more, (practically complete withering))
Indian mallow [30]
  K (Indian mallow) weedkilling efficacy grade: 0 (weed kill ratio 5% or less (practically no effect))
Corn [31]
  c (corn) effect on crop grade: 0 (weed kill ratio 5% or less (practically no effect))
Barnyard grass [32]
  A (barnyard grass) weedkilling efficacy grade: 5 (weed kill ratio 90% or more, (practically complete withering))
Chickweed [33]
  N (chickweed) weedkilling efficacy grade: 2 (weed kill ratio 20% or more, less than 40%)
birds-eye speedwell
  P (birds-eye speedwell) weedkilling efficacy grade: 4 (weed kill ratio 70% or more, less than 90%)
oval-leafed pondweed [34]
  C (oval-leafed pondweed) weedkilling efficacy grade: 5 (weed kill ratio 90% or more, (practically complete withering))
black-grass [35]
  H (black-grass) weedkilling efficacy grade: 5 (weed kill ratio 90% or more, (practically complete withering))
Crabgrass [36]
  D (crabgrass) weedkilling efficacy grade: 5 (weed kill ratio 90% or more, (practically complete withering))
Italian ryegrass [37]
  I (Italian ryegrass) weedkilling efficacy grade: 5 (weed kill ratio 90% or more, (practically complete withering))
Wheat [38]
  e (wheat) effect on crop grade: 2 (weed kill ratio 20% or more, less than 40%)
Wheat [39]
  e (wheat) effect on crop grade: 0 (weed kill ratio 5% or less (practically no effect))
Beet [40]
  f (beet) effect on crop grade: 2 (weed kill ratio 20% or more, less than 40%)
